# From patent publication US6451339B2, “Compositions and methods for improved delivery of hydrophobic agents” (Lipocine, Inc., priority 1999, dated 2002)
# Legend:
# [1] = Surfactant combinations giving clear aqueous dispersions (maximum hydrophobic surfactant, visual optical clarity); details: for approximate maximum grams of hydrophobic surfactant per 100 g of hydrophilic surfactant giving acceptable optical clarity: 10× aqueous dispersion, no solubilizer
# [2] = value reported by the manufacturer of the commercial product, a rough average, or inventors' judgment; cited from earlier work
Compound,HLB [2],other results
CCCCCCCC/C=C\CCCCCCCC(=O)OCC [Ethyl oleate],<10,"effect of added solubilizer on the relative amount of hydrophobic surfactant that can be used ([1]; Cremophor RH 40 hydrophilic surfactant, 20% solubilizer): negligible; approximate maximum grams of hydrophobic surfactant per 100 g of hydrophilic surfactant giving a clear aqueous dispersion ([1]; hydrophilic surfactant Cremophor RH40 + 20% Ethanol): 60 g per 100 g of hydrophilic sur; approximate maximum grams of hydrophobic surfactant per 100 g of hydrophilic surfactant giving a clear aqueous dispersion ([1]; hydrophilic surfactant Cremophor RH40 + 20% Glycofurol): 60 g per 100 g of hydrophilic sur; approximate maximum grams of hydrophobic surfactant per 100 g of hydrophilic surfactant giving a clear aqueous dispersion ([1]; hydrophilic surfactant Cremophor RH40 + 20% Triacetin): 60 g per 100 g of hydrophilic sur; approximate maximum grams of hydrophobic surfactant per 100 g of hydrophilic surfactant giving a clear aqueous dispersion ([1]; hydrophilic surfactant Cremophor RH40, solubilizer (None), reproduced from Table 19): 60 g per 100 g of hydrophilic sur; approximate maximum grams of hydrophobic surfactant per 100 g of hydrophilic surfactant giving acceptable optical clarity ([1]; hydrophilic surfactant PEG-8 Capric/Caprylic (Labrasol)): 10 g per 100 g of hydrophilic sur; approximate maximum grams of hydrophobic surfactant per 100 g of hydrophilic surfactant giving acceptable optical clarity ([1]; hydrophilic surfactant PEG-25 Glyceryl trioleate (Tagat TO)): 10 g per 100 g of hydrophilic sur; approximate maximum grams of hydrophobic surfactant per 100 g of hydrophilic surfactant giving acceptable optical clarity ([1]; hydrophilic surfactant PEG-35 Castor Oil (Incrocas 35)): 40 g per 100 g of hydrophilic sur; approximate maximum grams of hydrophobic surfactant per 100 g of hydrophilic surfactant giving acceptable optical clarity ([1]; hydrophilic surfactant PEG-40H Castor Oil (Cremophor RH-40)): 60 g per 100 g of hydrophilic sur; approximate maximum grams of hydrophobic surfactant per 100 g of hydrophilic surfactant giving acceptable optical clarity ([1]; hydrophilic surfactant PEG-60 Corn Oil (Crovol M-70)): 60 g per 100 g of hydrophilic sur; approximate maximum grams of hydrophobic surfactant per 100 g of hydrophilic surfactant giving acceptable optical clarity ([1]; hydrophilic surfactant Polysorbate 80 (Tween 80)): 10 g per 100 g of hydrophilic sur; approximate maximum grams of hydrophobic surfactant per 100 g of hydrophilic surfactant giving acceptable optical clarity ([1]; hydrophilic surfactant Polysorbate-20 (Tween 20)): 10 g per 100 g of hydrophilic sur"
CCCCCCCC(=O)OCC(C)OC(=O)CCCCCCC (stereo not shown) [Propylene glycol dicaprylate],>6,–
CCCCCCCCCCCC(=O)OCC(C)OC(=O)CCCCCCCCCCC (stereo not shown) [Propylene glycol dilaurate],>6,–
CCCCCCCC(=O)OCC(C)OC(=O)CCCCCCC (stereo not shown) [Propylene glycol dioctanoate],<6,–
CCCCCCCCCCCCCCCCCC(=O)OCC(C)OC(=O)CCCCCCCCCCCCCCCCC (stereo not shown) [Propylene glycol distearate],>6,–
"CCCCCCCCCCCCOS(=O)(=O)[O-].[Na+] [Sodium lauryl sulfate, Sodium lauryl sulfate (dodecyl)]",40,–
CCCCCCCC/C=C\CCCCCCCC(=O)[O-].[Na+] [Sodium oleate],18,–
CC[C@H](CC[C@@H](C)[C@H]1CC[C@H]2[C@@H]3CC=C4C[C@@H](O)CC[C@]4(C)[C@H]3CC[C@]12C)C(C)C [sitosterol],<10,–
PEG 400-100O monostearate,>10,–
PEG-5 soya sterol,<10,–
PEG-10 soya sterol,<10,–
PEG-20 soya sterol,<10,–
PEG-24 cholesterol ether,>10,–
PEG-25 phyto sterol,>10,–
PEG-30 cholestanol,>10,–
PEG-30 soya sterol,>10,–
Phytosterol,<10,–
Polyglyceryl polyricinoleate,3-20,–
Propylene glycol dicaprylate/dicaprate,<6,–
